Experimental data published in patent US20190000790A1, “PPAR-GAMMA ACTIVATORS AND THEIR THE[…]” (THERIAC B[…]., priority 2015, published 2019).

Tests used:
human PPARγ = test: Reporter gene bioassay of PPAR transcriptional activity (Gal4-hPPARγ / UAStkLuc luciferase in 293 cells); assay type: cell-based; conditions: each compound alone, 16 h, FIGS. 1A and B
Description: FIG. 1A, 1B illustrate a transcriptional activation of PPARγ by BNZ and PAA. Luciferase assay was performed in 293 cells transfected with Gal4-hPPARγ and UAStkLuc reporter construct and treated for 16 h with respective compounds. Data are expressed as fold change ±SEM compared to untreated cells set at 1.0.*, P<0.05; **, P<0.001.
FIG. 1C illustrates the additive effect of SB and PAA on transcriptional activity of PPARγ. Luciferase assay was performed in 293 cells transfected with Gal4-hPPARγ and UAStkLuc reporter construct and treated 10 mM of each compound for 16 h. Data are expressed as fold change ±SEM compared to untreated cells set at 1.0.*, P<0.001.
Human embryonic kidney 293 cells were seeded in DMEM supplemented with 5% charcoal dextran-treated FBS and transfected with Gal4 DBD fusion of PPAR isoforms and UAStkLuc reporter as described (12). Cells were then treated for 16 hrs and harvested for luciferase activity. Luciferase values were normalized for transfection efficiency to β-galactosidase activity and expressed as relative fold response compared to untreated cells. Data are derived from at least four independent experiments performed in triplicates. […]

CD4+ T cells = test: Treatment of CD4+ T cells from healthy volunteers and Systemic Lupus Erythematosus patients; assay type: cell-based, human; conditions: preliminary data, FIG. 6; CD4+ T cells stimulated with α-CD3/CD28 beads
Text: FIG. 6 illustrates BZN+PAA (HIP-002) treatment of T cells derived from healthy volunteer (HV) and Systemic Lupus Erythematous (SLE) patients.
Next, we examined if BZN+PAA can improve immune function of T lymphocytes in Systemic Lupus Erythematosus (SLE). […] Dilutions effects of the BZN+PAA drug (HIP-002) are shown. (FIG. 6A). CD4+ T cells were stimulated with α-CD3/CD28 beads for 4 (red) or 5 (black) days and cytotoxicity determined by Live/Dead staining. (FIG. 6B) CD4+ T cells were stimulated as in (FIG. 6A) for 5 days, and the surface expression of CD154 and CD25 measured by FACS analysis. (FIG. 6C) CD4+ T cells were stimulated as in (FIG. 6A), and proliferation measured by dilution of the CellTrace Violet dye. White bars: HV; n=2-3. Gray bars: SLE patients; n=3-4. * p<0.05, ** p<0.01, *** p<0.0001.

Structure (SMILES): O=C([O-])c1ccccc1.[Na+] [BNZ, benzoate]
- PPARγ activity (transcriptional activation, luciferase) (human PPARγ): significantly potent in increasing PPARγ activity
- effect on growth and survival of T lymphocytes (CD4+ T cells): beneficial effect on the growth and survival of these cells
